Measurements as given in US20070111258A1, “Compositions and methods for modulating the acute phase response” (priority 2005, published 2007).

What was measured:
ApoB mRNA = experiment: Endogenous ApoB mRNA in mouse liver; assay type: in vivo; details: Tm 2 μg/gram body weight i.p.; liver at 24 hours
Experimental: C57BL/6J mice at 3-months of age were injected intraperitoneally with Tm (2 μg/gram body weight) in 150 mM dextrose solution. Mice were injected with the same volume of dextrose solution as a control. Liver tissue were collected from mice at 24 hours after injection for RNA isolation. Quantitative real-time RT-PCR was used to determine the ApoB and the spliced XBP1 mRNA levels. Fold changes of mRNA induction were determined after normalization of the mRNA levels to internal control 18S ribosomal RNA levels. Data points are fold changes of the ApoB or spliced XBP1 mRNA levels for individuals, n=5 mice per injection.

CREBH [1] = experiment: Cleavage of flag-tagged CREBH in transfected wild-type CHO cells (nuclear fraction Western blot); assay type: cell-based, Chinese hamster; details: Tm 5 μg/ml 10 hours
Experimental: FIG. 5 depicts the cleavage of CREBH by proteases S1P and S2P upon ER stress. (A) CREBH is cleaved by S1P-KDEL, but not S1P-KDAS. COS7 cells were co-transfected with a construct expressing flag-tagged full-length CREBH and a construct expressing S1P-KDAS or S1P-KDEL. CREBH construct DNA (1 μg) was mixed with S1P-KDEL or S1P-KDAS construct DNA (1 or 2 μg as indicated) for transfection of cells in one well of a 6-well plate. COS7 cells expressing full-length CREBH were also cultured in the absence or presence of 0.5 μM BFA for 8 hours. COS7 cells expressing CREBH-ΔC, the cytosolic/nuclear form of CREBH, were included as a positive control. Expression and cleavage of CREBH were detected by Western blot analysis using an anti-flag antibody. (B) Cleavage of CREBH in wild-type (K1), S2P-deficient (M19), and […] CHO cells. […]
For analysis of expression and cleavage of CREBH protein, total cell lysates were prepared from H2.35 cells or COS7 cells using Nonidet P-40 lysis buffer (1% NP-40, 50 mM Tris-HCl at pH 7.5, 150 mM NaCl, 0.05% SDS) supplemented with protease inhibitors (Complete Mini from Roche Applied Science), 0.1 mM sodium vanadate, and 1 mM sodium fluoride. […] The total cell lysate, membrane and nuclear fractions were subjected to SDS-PAGE and then analyzed by Western blot using anti-flag monoclonal antibody or other antibodies. […]

CRP = experiment: Serum CRP in CREBH knockdown and control RNAi mice (ELISA); assay type: in vivo, mouse; details: 24 hours after injection
Experimental: (§1) (A) Identification of CREBH knockdown mice by Northern blot analysis. Transgenic mice with empty vector lentivirus expressing GFP were used as controls. Total RNAs (15 μg/lane) were isolated from the livers of the CREBH RNAi or the control mice, and subjected to Northern blot analysis. A 260 bp GFP cDNA fragment and a 210 bp mouse CREBH cDNA fragment were used as probes for detecting levels of GFP mRNA and CREBH mRNA, respectively. Levels of ββ-actin mRNA were determined for control of sample loading. (B) Morphology of CREBH knockdown embryos. The embryos were collected at gestation stage E14.5. The paraffin-embedded embryo sections were stained with hematoxylin and eosin. Magnification: 20 X. (C) Northern blot analysis of levels of CREBH, CRP and SAP mRNA in the livers of the CREBH knockdown or the control mice. Levels of β-actin mRNA were determined for sample loading controls. (D-E) Serum levels of SAP and CRP in the CREBH knockdown and the siRNA control mice in response to IL6 plus IL1β LPS or Tm. CREBH knockdown and RNAi control mice at 3-months of age were challenged with recombinant mouse IL6 (25 ng/gram body weight) plus recombinant mouse IL1β (25 ng/gram body weight), LPS (3 μg/gram body weight) or Tm (2 mg/kg body weight). Serum levels of SAP and CRP in the mice were determined before injection and at 24 hours after IL6 plus IL1β, LPS or Tm injection. […]

SAP = experiment: Serum SAP in CREBH knockdown and control RNAi mice (ELISA); assay type: in vivo, mouse; details: Tm 2 μg/gram body weight i.p., 24 hours
Experimental: as §1

CREBH [2] = experiment: Endogenous CREBH cleavage in mouse liver (Western blot); assay type: in vivo; details: wild-type mice; 24 hours after i.p. injection
Experimental: (F-G) Expression of endogenous CREBH protein in the livers of wild-type (F) and CREBH knockdown (G) mice challenged with IL6 plus IL1β, LPS or Tm. Wild-type or CREBH knockdown mice of 3-month old were intraperitoneally injected with IL6 (25 ng/gram body weight) plus IL1β (25 ng/gram body weight), LPS (3 μg/gram body weight) or Tm (2 μg/gram body weight). Mice were injected with the same volume of NaCL solution as controls. Liver protein extracts were prepared at 24 hours after injection. Western blot analysis was performed by using a polyclonal anti-mouse CREBH antibody. The blots were reprobed with anti-α-actin antibody for loading controls.

Substance: tunicamycin [Tm]
- induction of endogenous ApoB mRNA in mice (ApoB mRNA): only slightly increased
- increase of the nuclear form of CREBH (CREBH [1]): approximately 6 fold
- increase of serum levels of CRP (CRP; control RNAi mice): approximately 2 fold
- increase of serum levels of CRP (CRP; treated CREBH knockdown mice): no such increase
- increase of serum SAP (SAP; CREBH knockdown mice): approximately 2 fold
- increase of serum levels of SAP (SAP; control mice): approximately 12 fold
- cleaved form of CREBH in the livers (CREBH [2]): cleaved form of CREBH was increased
